# In the kinase profiling compilation of Christmann-Franck et al. (2016):
# Experiments:
# Assay in all cases: KINOMEscan competition binding
# ABL2 (human) = ABL2 (human) (UniProt P42684); details: compound 10.0 µM
# ACVR1 (human) = ACVR1 (human) (UniProt Q04771); details: compound 10.0 µM
# ACVR2B (human) = ACVR2B (human) (UniProt Q13705); details: compound 10.0 µM
# AKT2 (human) = AKT2 (human) (UniProt P31751); details: compound 10.0 µM
# BMPR1A (human) = BMPR1A (human) (UniProt P36894); details: compound 10.0 µM
# BRSK2 (human) = BRSK2 (human) (UniProt Q8IWQ3); details: compound 10.0 µM
# CDC2L2 (human) = CDC2L2 (human) (UniProt Q9UQ88); details: compound 10.0 µM
# CDK11B (human) = CDK11B (human) (UniProt P21127); details: compound 10.0 µM
# CDK16 (human) = CDK16 (human) (UniProt Q00536); details: compound 10.0 µM
# CDK18 (human) = CDK18 (human) (UniProt Q07002); details: compound 10.0 µM
# CDK2 (human) = CDK2 (human) (UniProt P24941); details: compound 10.0 µM
# CHUK (human) = CHUK (human) (UniProt O15111); details: compound 10.0 µM
# CPK1 (P.falciparum) = details: compound 10.0 µM
# CRK2 (P.falciparum) = CRK2 (P.falciparum) (UniProt P61075); details: compound 10.0 µM
# CSNK1E (human) = CSNK1E (human) (UniProt P49674); details: compound 10.0 µM
# DCLK3 (human) = DCLK3 (human) (UniProt Q9C098); details: compound 10.0 µM
# [1] = tested on: EGFR (human), P00533 [752-759 del]; details: compound 10.0 µM
# [2] = tested on: EGFR (human), P00533 [P753S; 747-752 del]; details: compound 10.0 µM
# FGFR4 (human) = FGFR4 (human) (UniProt P22455); details: compound 10.0 µM
# [3] = tested on: FLT3 (human), P36888 [D835Y]; details: compound 10.0 µM
# [4] = tested on: FLT3 (human), P36888 [ITD]; details: compound 10.0 µM
# [5] = tested on: FLT3 (human), P36888 [K663Q]; details: compound 10.0 µM
# [6] = tested on: FLT3 (human), P36888 [N841I]; details: compound 10.0 µM
# ITK (human) = ITK (human) (UniProt Q08881); details: compound 10.0 µM
# [7] = tested on: KIT (human), P10721 [A829P]; details: compound 10.0 µM
# MAK (human) = MAK (human) (UniProt P20794); details: compound 10.0 µM
# MAP3K1 (human) = MAP3K1 (human) (UniProt Q13233); details: compound 10.0 µM
# MAPK1 (human) = MAPK1 (human) (UniProt P28482); details: compound 10.0 µM
# MARK2 (human) = MARK2 (human) (UniProt Q7KZI7); details: compound 10.0 µM
# MKNK2 (human) = MKNK2 (human) (UniProt Q9HBH9)
# NEK5 (human) = NEK5 (human) (UniProt Q6P3R8); details: compound 10.0 µM
# PIM2 (human) = PIM2 (human) (UniProt Q9P1W9); details: compound 10.0 µM
# PKMYT1 (human) = PKMYT1 (human) (UniProt Q99640); details: compound 10.0 µM
# PRKD2 (human) = PRKD2 (human) (UniProt Q9BZL6); details: compound 10.0 µM
# [8] = tested on: RET (human), P07949 [V804L]; details: compound 10.0 µM
# RPS6KA5 KD2 (human) = RPS6KA5 KD2 (human) (UniProt O75582); details: compound 10.0 µM
# SIK1 (human) = SIK1 (human) (UniProt P57059); details: compound 10.0 µM
# TEK (human) = TEK (human) (UniProt Q02763); details: compound 10.0 µM
# TESK1 (human) = TESK1 (human) (UniProt Q15569); details: compound 10.0 µM
# TLK2 (human) = TLK2 (human) (UniProt Q86UE8); details: compound 10.0 µM
# TYRO3 (human) = TYRO3 (human) (UniProt Q06418); details: compound 10.0 µM
# Chain of TYRO3 (human) (Q06418 whole entry, looked up): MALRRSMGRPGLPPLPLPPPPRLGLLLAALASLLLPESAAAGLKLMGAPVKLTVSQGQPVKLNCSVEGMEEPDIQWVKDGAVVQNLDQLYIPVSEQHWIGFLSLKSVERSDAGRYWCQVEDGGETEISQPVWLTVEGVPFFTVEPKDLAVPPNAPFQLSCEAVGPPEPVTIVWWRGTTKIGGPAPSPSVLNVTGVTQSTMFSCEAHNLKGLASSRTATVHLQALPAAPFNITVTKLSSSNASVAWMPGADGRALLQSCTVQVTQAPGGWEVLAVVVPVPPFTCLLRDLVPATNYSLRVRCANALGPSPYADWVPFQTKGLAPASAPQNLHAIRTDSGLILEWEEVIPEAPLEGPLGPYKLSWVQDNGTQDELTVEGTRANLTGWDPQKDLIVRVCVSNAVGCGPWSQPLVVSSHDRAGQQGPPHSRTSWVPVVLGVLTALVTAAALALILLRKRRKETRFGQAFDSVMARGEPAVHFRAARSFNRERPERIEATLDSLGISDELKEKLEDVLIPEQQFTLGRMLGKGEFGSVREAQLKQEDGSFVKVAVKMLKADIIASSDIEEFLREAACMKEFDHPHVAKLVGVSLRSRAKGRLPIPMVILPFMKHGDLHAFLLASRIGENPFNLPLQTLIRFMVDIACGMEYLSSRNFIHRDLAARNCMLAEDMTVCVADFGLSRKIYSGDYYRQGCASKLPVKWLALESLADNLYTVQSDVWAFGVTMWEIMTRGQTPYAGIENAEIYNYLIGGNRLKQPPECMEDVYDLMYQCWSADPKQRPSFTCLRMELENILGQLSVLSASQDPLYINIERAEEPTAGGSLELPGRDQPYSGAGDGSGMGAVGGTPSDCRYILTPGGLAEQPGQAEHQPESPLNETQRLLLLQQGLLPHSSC
# Chain of MKNK2 (human) (Q9HBH9 whole entry, looked up): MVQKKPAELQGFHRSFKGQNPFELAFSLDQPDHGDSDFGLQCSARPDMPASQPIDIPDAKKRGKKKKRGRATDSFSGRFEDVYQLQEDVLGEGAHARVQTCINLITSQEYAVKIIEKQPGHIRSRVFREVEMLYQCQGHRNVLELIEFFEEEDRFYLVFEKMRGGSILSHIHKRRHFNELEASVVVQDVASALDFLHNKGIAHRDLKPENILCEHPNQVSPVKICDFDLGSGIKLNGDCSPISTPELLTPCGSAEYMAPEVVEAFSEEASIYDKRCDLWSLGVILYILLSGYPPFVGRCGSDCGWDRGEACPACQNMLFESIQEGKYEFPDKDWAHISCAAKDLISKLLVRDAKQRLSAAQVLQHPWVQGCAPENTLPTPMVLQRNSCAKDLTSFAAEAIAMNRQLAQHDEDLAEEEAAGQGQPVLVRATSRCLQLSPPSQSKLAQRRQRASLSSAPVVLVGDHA
# Chain of CHUK (human) (O15111 whole entry, looked up): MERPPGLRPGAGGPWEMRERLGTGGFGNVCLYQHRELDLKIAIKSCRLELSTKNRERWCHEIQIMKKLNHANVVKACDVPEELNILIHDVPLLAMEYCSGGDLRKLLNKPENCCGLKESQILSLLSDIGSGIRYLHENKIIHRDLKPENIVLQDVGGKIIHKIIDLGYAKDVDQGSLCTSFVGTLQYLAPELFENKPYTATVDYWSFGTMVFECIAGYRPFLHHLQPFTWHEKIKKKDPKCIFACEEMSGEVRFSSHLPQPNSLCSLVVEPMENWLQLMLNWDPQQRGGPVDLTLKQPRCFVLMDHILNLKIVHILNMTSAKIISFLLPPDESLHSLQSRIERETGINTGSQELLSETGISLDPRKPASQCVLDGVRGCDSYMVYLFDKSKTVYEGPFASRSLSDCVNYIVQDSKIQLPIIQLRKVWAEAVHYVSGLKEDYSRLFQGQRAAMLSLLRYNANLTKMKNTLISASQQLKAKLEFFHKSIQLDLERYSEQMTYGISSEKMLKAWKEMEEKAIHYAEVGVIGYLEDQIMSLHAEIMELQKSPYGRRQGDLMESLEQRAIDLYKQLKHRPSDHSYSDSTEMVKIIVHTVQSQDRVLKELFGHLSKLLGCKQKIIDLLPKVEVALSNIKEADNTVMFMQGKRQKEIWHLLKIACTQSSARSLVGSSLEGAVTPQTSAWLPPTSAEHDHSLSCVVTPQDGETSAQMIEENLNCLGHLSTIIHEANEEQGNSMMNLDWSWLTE
# Chain of CDK11B (human) (P21127 whole entry, looked up): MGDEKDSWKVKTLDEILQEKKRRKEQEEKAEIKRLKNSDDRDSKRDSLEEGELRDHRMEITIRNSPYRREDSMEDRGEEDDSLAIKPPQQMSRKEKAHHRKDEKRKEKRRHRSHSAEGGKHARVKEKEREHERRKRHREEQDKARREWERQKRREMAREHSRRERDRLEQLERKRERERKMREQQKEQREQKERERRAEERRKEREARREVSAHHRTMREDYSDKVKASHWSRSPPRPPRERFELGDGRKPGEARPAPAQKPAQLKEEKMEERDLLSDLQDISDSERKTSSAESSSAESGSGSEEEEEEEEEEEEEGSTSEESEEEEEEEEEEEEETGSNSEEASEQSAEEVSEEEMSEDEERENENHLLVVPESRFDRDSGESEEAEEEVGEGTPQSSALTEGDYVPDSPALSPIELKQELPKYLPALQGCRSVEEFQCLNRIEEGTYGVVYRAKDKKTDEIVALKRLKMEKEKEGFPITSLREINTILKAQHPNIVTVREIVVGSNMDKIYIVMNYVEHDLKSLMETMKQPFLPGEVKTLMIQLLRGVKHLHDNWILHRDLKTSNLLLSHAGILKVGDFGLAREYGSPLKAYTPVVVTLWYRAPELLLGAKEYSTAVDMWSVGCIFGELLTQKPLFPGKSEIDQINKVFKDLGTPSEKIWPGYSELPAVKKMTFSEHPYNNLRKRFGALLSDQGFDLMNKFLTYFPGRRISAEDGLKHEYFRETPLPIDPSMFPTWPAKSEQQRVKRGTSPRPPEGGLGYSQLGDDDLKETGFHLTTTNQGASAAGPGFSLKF
# Chain of CDK18 (human) (Q07002 whole entry, looked up): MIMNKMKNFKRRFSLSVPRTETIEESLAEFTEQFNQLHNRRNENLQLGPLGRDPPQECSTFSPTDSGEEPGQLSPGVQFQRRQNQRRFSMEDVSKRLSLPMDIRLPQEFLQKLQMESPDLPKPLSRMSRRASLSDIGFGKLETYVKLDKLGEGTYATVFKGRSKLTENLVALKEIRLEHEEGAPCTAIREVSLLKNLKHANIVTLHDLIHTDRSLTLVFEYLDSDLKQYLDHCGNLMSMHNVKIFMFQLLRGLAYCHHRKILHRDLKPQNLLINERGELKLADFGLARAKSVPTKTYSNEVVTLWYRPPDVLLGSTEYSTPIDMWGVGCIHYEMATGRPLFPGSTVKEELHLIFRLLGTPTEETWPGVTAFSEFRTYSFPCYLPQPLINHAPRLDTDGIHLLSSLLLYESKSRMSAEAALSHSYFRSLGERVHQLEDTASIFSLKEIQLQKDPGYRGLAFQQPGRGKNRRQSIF
# Chain of PRKD2 (human) (Q9BZL6 whole entry, looked up): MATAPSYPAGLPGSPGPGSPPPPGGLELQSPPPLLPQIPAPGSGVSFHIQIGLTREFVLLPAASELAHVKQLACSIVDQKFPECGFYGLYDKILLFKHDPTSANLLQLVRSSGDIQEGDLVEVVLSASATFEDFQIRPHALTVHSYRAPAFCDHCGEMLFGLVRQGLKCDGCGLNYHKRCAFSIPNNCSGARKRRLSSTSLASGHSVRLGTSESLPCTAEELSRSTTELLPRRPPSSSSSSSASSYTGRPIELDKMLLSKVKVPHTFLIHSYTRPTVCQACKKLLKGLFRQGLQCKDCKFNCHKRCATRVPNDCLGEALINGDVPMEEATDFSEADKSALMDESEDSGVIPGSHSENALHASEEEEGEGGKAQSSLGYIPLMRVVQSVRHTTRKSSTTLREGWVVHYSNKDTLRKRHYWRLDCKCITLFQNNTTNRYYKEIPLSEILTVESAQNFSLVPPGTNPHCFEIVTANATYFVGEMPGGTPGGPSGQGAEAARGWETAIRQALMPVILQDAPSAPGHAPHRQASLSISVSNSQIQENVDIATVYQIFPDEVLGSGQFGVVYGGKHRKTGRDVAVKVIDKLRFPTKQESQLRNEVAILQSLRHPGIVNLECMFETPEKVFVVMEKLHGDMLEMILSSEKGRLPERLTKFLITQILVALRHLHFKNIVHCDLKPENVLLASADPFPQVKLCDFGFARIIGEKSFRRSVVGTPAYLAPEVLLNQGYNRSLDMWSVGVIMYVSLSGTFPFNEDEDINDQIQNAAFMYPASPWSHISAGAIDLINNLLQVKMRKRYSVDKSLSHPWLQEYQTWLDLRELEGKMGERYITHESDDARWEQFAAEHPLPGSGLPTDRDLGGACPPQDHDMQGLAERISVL
# Chain of CRK2 (P.falciparum) (P61075 whole entry, looked up): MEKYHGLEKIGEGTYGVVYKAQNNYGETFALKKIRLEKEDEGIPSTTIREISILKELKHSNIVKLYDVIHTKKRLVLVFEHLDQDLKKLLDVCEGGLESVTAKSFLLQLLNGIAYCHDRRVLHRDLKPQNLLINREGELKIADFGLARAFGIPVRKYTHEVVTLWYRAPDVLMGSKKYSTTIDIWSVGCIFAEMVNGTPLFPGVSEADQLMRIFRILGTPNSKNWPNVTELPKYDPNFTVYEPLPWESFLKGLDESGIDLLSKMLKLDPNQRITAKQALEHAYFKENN
# Chain of CSNK1E (human) (P49674 whole entry, looked up): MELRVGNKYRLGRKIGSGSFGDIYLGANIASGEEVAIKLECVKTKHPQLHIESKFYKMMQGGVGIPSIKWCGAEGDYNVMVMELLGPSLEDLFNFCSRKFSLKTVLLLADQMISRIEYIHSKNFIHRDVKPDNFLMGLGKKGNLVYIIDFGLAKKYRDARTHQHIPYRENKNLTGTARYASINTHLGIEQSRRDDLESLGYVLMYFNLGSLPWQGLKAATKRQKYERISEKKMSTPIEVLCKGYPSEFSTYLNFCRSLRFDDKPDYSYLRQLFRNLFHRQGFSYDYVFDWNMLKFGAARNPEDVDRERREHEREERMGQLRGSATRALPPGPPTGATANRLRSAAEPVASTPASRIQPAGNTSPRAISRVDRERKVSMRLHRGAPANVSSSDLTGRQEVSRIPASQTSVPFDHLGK
smiles,measurement,setting,value
COc1cc(C(=O)N2CCC(N3CCN(C)CC3)CC2)ccc1Nc1ncc2c(n1)N(C)c1ccccc1C(=O)N2C,"kinase still bound, per cent of control",ABL2 (human),97%
same,"kinase still bound, per cent of control",ACVR1 (human),98%
same,"kinase still bound, per cent of control",ACVR2B (human),100%
same,"kinase still bound, per cent of control",AKT2 (human),100%
same,"kinase still bound, per cent of control",BMPR1A (human),100%
same,"kinase still bound, per cent of control",BRSK2 (human),64%
same,residual activity,CDC2L2 (human),82%
same,residual activity,CDK11B (human),84%
same,residual activity,CDK16 (human),96%
same,residual activity,CDK18 (human),100%
same,residual activity,CDK2 (human),100%
same,"kinase still bound, per cent of control",CHUK (human),100%
same,"kinase still bound, per cent of control",CPK1 (P.falciparum),100%
same,"kinase still bound, per cent of control",CRK2 (P.falciparum),100%
same,"kinase still bound, per cent of control",CSNK1E (human),95%
same,"kinase still bound, per cent of control",DCLK3 (human),90%
same,"kinase still bound, per cent of control",[1],99%
same,"kinase still bound, per cent of control",[2],84%
same,"kinase still bound, per cent of control",FGFR4 (human),28%
same,"kinase still bound, per cent of control",[3],100%
same,"kinase still bound, per cent of control",[4],100%
same,"kinase still bound, per cent of control",[5],97%
same,"kinase still bound, per cent of control",[6],73%
same,"kinase still bound, per cent of control",ITK (human),82%
same,"kinase still bound, per cent of control",[7],100%
same,"kinase still bound, per cent of control",MAK (human),72%
same,"kinase still bound, per cent of control",MAP3K1 (human),95%
same,"kinase still bound, per cent of control",MAPK1 (human),85%
same,"kinase still bound, per cent of control",MARK2 (human),100%
same,Kd,MKNK2 (human),0.38 µM
same,"kinase still bound, per cent of control",MKNK2 (human); compound 10.0 µM,1.2%
same,"kinase still bound, per cent of control",NEK5 (human),100%
same,"kinase still bound, per cent of control",PIM2 (human),100%
same,"kinase still bound, per cent of control",PKMYT1 (human),80%
same,"kinase still bound, per cent of control",PRKD2 (human),59%
same,"kinase still bound, per cent of control",[8],89%
same,"kinase still bound, per cent of control",RPS6KA5 KD2 (human),92%
same,"kinase still bound, per cent of control",SIK1 (human),77%
same,"kinase still bound, per cent of control",TEK (human),100%
same,"kinase still bound, per cent of control",TESK1 (human),82%
same,"kinase still bound, per cent of control",TLK2 (human),99%
same,"kinase still bound, per cent of control",TYRO3 (human),100%
